Measurements as given in patent US20230250106A1, “COMPOUNDS AND COMPOSITIONS FOR TREATING CONDITIONS ASSOCIATED WITH STING ACTIVITY” (IFM Due, Inc., priority 2020, published 2023).

These molecules were tested on STING pathway (assay: STING reporter assay: luciferase reporter activity in THP1-Dual KO-IFNAR2 cells activated with 2'3'cGAMP). Conditions: 2'3'cGAMP 15 μM, 24 h.
Assay type: cell-based
Design: hSTING EC50: scale not given here
Outline: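 THP1-Dual KO-IFNAR2 cells were exposed to compounds at 0.0017-100 μM final and stimulated with 2′3′cGAMP (15 μM final) delivered with Lipofectamine 2000. After 24 h at 37 °C, secreted luciferase in the supernatant was read with QUANTI-Luc Plus, and EC50 values were calculated.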

Structure (SMILES) | hSTING EC50
COc1ncc(C(=O)Nc2c[nH]c3cc(F)c(F)cc23)cc1C(F)(F)F [Compound 264, N-(5,6-difluoro-1H-indol-3-yl)-6-methoxy-5-(trifluoromethyl)pyridine-3-carboxamide] | + +

Same assay, conditions: Homo sapiens, 2'3'cGAMP 15 μM, 24 h, read-out: hSTING EC50

Structure (SMILES) | EC50 [nM]
O=C(Nc1c[nH]c2cc(F)c(F)cc12)c1cnc(CN2CC(F)(F)C2)c(Cl)c1 [Compound 255, 5-chloro-N-(5,6-difluoro-1H-indol-3-yl)-6-((3,3-difluoroazetidin-1-yl)methyl)nicotinamide] | 1000 to 5000
Cc1ncc(C(=O)Nc2c[nH]c3cc(F)c(F)cc23)cc1N1CCC(F)(F)CC1 [Compound 256, N-(5,6-difluoro-1H-indol-3-yl)-5-(4,4-difluoropiperidin-1-yl)-6-methylnicotinamide] | 1000 to 5000
O=C(Nc1c[nH]c2cc(F)c(F)cc12)c1ccnc(CN2CC(F)(F)C2)c1 [Compound 257, N-(5,6-difluoro-1H-indol-3-yl)-2-((3,3-difluoroazetidin-1-yl)methyl)isonicotinamide] | 5000 to 100000
CC(C)Oc1ccc(C(=O)Nc2c[nH]c3cc(F)c(F)cc23)cn1 [Compound 265, N-(5,6-difluoro-1H-indol-3-yl)-6-(propan-2-yloxy)pyridine-3-carboxamide] | 200 to 1000
O=C(Nc1c[nH]c2cc(F)c(F)cc12)c1ccc(-c2noc(C3CC3)n2)cc1 [Compound 266, 4-(5-cyclopropyl-1,2,4-oxadiazol-3-yl)-N-(5,6-difluoro-1H-indol-3-yl)benzamide] | 200 to 1000
CC(C)c1nc(-c2ccc(C(=O)Nc3c[nH]c4cc(F)c(F)cc34)cc2)no1 [Compound 267, N-(5,6-difluoro-1H-indol-3-yl)-4-(5-isopropyl-1,2,4-oxadiazol-3-yl)benzamide] | 200 to 1000
O=C(Nc1c[nH]c2cc(F)c(F)cc12)c1ccc(OC(F)(F)C(F)F)cc1 [Compound 268, N-(5,6-difluoro-1H-indol-3-yl)-4-(1,1,2,2-tetrafluoroethoxy)benzamide] | 200 to 1000
O=C(Nc1c[nH]c2cc(F)c(F)cc12)c1ccc(OC2COC2)cc1 [Compound 269, N-(5,6-difluoro-1H-indol-3-yl)-4-(oxetan-3-yloxy)benzamide] | 1000 to 5000
O=C(Nc1c[nH]c2cc(F)c(F)cc12)c1ccc(OC(F)F)cn1 [Compound 270, N-(5,6-difluoro-1H-indol-3-yl)-5-(difluoromethoxy)pyridine-2-carboxamide] | 5000 to 100000
N#Cc1cc(C(=O)Nc2c[nH]c3ccc(Cl)cc23)cnc1N1CC(F)(F)C1 [Compound 271, N-(5-chloro-1H-indol-3-yl)-5-cyano-6-(3,3-difluoroazetidin-1-yl)nicotinamide] | 200 to 1000

The next lines start with the values.

EC50 [nM] | Structure (SMILES)
200 to 1000 | O=C(Nc1c[nH]c2cc(F)c(F)cc12)c1ccc(C2(O)CCC(F)(F)CC2)c(F)c1 [Compound 258, 4-(4,4-difluoro-1-hydroxycyclohexyl)-N-(5,6-difluoro-1H-indol-3-yl)-3-fluorobenzamide]
200 to 1000 | O=C(Nc1c[nH]c2cc(F)c(Cl)cc12)c1ccc(C2(O)CCC(F)(F)CC2)cc1 [Compound 259, N-(5-chloro-6-fluoro-1H-indol-3-yl)-4-(4,4-difluoro-1-hydroxycyclohexyl)benzamide]
200 to 1000 | O=C(Nc1c[nH]c2cc(F)c(F)cc12)c1ccc(CN2CC(F)C2)c(F)c1 [Compound 260, N-(5,6-difluoro-1H-indol-3-yl)-3-fluoro-4-((3-fluoroazetidin-1-yl)methyl)benzamide]
200 to 1000 | CCC1Cc2ccc(C(=O)Nc3c[nH]c4cc(F)c(F)cc34)cc2C1 (centres unmarked) [Compound 261, N-(5,6-difluoro-1H-indol-3-yl)-2-ethyl-2,3-dihydro-1H-indene-5-carboxamide]
200 to 1000 | O=C(Nc1c[nH]c2cc(F)c(F)cc12)c1ccc(OCCOC(F)(F)F)c(F)c1 [Compound 262, N-(5,6-difluoro-1H-indol-3-yl)-3-fluoro-4-(2-(trifluoromethoxy)ethoxy)benzamide]
200 to 1000 | O=C(Nc1c[nH]c2cc(F)c(F)cc12)c1ccnc(Oc2ccccc2)c1 [Compound 263, N-(5,6-difluoro-1H-indol-3-yl)-2-phenoxypyridine-4-carboxamide]
